Molecules are shown by their SMILES. Where two headings read alike, the source gives them in different places.

For assay [1], the system named is activated T-lymphocytes. The assay is described as follows: DNA synthesis ([3H]-thymidine incorporation) in activated T-lymphocytes. To be noted: Homo sapiens, T-lymphocyte; Mean±s.e.mean (mean±range for n=2); read-out: pIA50 DNA (converted). Type of assay: cell-based. The protocol: (§1) PBMCs were prepared as described above by separation over Lymphoprep and T-lymphocytes were then enriched by purification on a nylon wool column. Briefly, 0.6 g nylon wool was inserted into a 10 ml syringe and this was autoclaved. […] The PBMC were resuspended in 1 ml of pre-warmed RPMI (20% HS) and were loaded onto the nylon wool column. The column was incubated for 45 min at 37° C. followed by elution of the T-cells by adding 10 ml RPMI (20% HS) (prewarmed to 37° C.) dropwise to the column. The T-cells obtained from the elution of the column were centrifuged (850 g for 5 min) and resuspended in RPMI containing L-glutamine and 5% human serum and stimulated with 0.5 ng/ml PMA and 500 ng/ml lonomycin for 48 h.
DNA synthesis was assessed by measuring the incorporation of [^3H]-thymidine. The assay was carried out in a 96-well plate. 20 μl of test compounds at 10× the final concentration were added to the plate followed by 200 μl of T-cells per well (2×10^5 cells). The cells were cultured for 4 h under standard cell culture conditions and cultures were pulsed with ^3H-thymidine (0.5 μCi/well; Amersham) for the final hour of the incubation.
On the technique in general: Uptake of a labelled nucleoside into DNA is a usual measure of proliferation.

The test system of assay [2] is activated T-lymphocytes. Put plainly: Extracellular lactate levels in activated T-lymphocytes (lactate oxidase). The class given is cell-based, human. As to the method:
as §1
20 μl of each concentration were added to triplicate wells of a 96-well plate. T-cells were then added (200 μl per well, 2×10^5 cells) and were cultured for 4 h under standard cell culture conditions. The cell supernatants were collected from each well after the cells were pelleted by centrifugation of the plate at 850 g for 5 min at 4° C. 10 μl of each supernatant sample were used for the lactate determination.
(§2) The assay was carried out in 96-well plates at room temperature. 10 μl of standard or sample were added to each well followed by 200 μl of the Lactate Reagent. […] The data were collected and analysed using SOFTmax PRO software (Molecular Devices).

The subject of assay [3] is activated T-lymphocytes. The assay is described as follows: Intracellular lactate levels in activated T-lymphocytes (lactate oxidase). The settings on record: Homo sapiens, T-lymphocyte; Mean±s.e.mean (mean±range for n=2); read-out: pIA50 Intracellular Lactate (converted). The class given is cell-based. As to the method: as §1
100 μl of each concentration were added to triplicate wells of a 24-well plate. T-cells were then added (1 ml per well) and were cultured for 4 h under standard cell culture conditions. The cells were then transferred from each well to microfuge tubes and were centrifuged at 360 g for 5 min at 4° C. The supernatant was discarded and the cell pellet was resuspended in 1 ml of ice-cold PBS, pH5.0. The cells were washed twice in PBS by centrifugation (360 g, 5 min, 4° C.) followed by resuspension of the cell pellet in 100 μl deionized water. The cells were incubated for 15 min at 4° C. to allow cell lysis to occur and the cell debris was removed by centrifugation at 15000 g for 10 min at 4° C. 10 μl of each supernatant sample were used for the lactate determination.
as §2

Assay [4] deals with peripheral blood mononuclear cells (PBMC). The assay is described as follows: T-lymphocyte proliferation, PMA/ionomycin stimulated PBMC, 3 days. The settings on record: Homo sapiens, 72 h, read-out: pIA50 Proliferation (3 days) (converted).
Source text: The cell signalling pathways triggered by T-cell activation through the T cell receptor and CD28 can be mimicked in vitro using a phorbol ester, phorbol 12-myristate 13-acetate (PMA), which activates protein kinase C, and ionomycin, which induces calcium release from internal cellular stores. PMA and ionomycin-stimulated proliferation of peripheral blood mononuclear cells (PBMC), of which the predominant cell type is T-lymphocytes, provides a suitable assay for measuring the ability of small molecules to block T-cell proliferation.
Blood was centrifuged at 850 g for 10 minutes and the plasma was removed. […] The blood/Lymphoprep layers were centrifuged at 850 g for 20 minutes at 18° C. (with no brake).
10 μl of compound in solution was then added to the 96-well flat bottom assay plate (final volume of 200 μl). […] Both were diluted to 4× the final assay concentration in complete medium. 50 μl of each reagent was dispensed per well to give a final assay concentration of 0.5 ng/ml PMA and 500 ng/ml ionomycin. Control wells received 100 μl cells with PMA only (negative control 1), with ionomycin only (negative control 2) and 100 μl cells with 50 μl PMA and 50 μl ionomycin with no test compound (positive control). 100 μl complete medium was added to the negative controls. […]
Assay [5] has as its target T1, MCT1 with a streptavidin-binding sequence tag (Homo sapiens, UniProt P53985, D490E).
T1 construct: The invention is not restricted to the use of full-length native human MCTs; made in house; host or cells: Saccharomyces cerevisiae BY4742 (jen1 deletion), membrane preparation; plasmid pACES14-MCT1-strep tag
T1 sequence (P53985 1-500 D490E): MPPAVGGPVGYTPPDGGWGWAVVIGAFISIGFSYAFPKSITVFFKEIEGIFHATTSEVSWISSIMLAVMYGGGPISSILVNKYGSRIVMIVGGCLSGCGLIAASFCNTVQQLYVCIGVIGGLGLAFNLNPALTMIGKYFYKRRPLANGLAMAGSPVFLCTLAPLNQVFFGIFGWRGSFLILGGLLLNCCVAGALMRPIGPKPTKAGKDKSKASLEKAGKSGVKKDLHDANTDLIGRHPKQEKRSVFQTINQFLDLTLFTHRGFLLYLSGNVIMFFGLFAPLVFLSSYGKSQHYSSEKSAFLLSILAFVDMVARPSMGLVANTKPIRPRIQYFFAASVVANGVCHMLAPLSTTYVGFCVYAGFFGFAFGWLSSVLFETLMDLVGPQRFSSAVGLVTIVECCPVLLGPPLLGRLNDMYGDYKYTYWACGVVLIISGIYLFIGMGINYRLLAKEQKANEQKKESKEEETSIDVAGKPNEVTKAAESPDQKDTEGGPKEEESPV
The assay is described as follows: Yeast membrane MCT1-strep tagged SPA assay (125I ligand A). To be noted: 0.1 nM 125I ligand A. The protocol: Yeast membranes expressing MCT1 with a streptavidin-binding sequence tag were then added to give a final concentration of 37 μg/ml protein and gently rolled for >30 minutes at room temperature. The beads/membranes were then washed by centrifugation at ˜650 g for 10 minutes and resuspended in assay buffer+0.05% BSA. The washing was repeated once before resuspended in the appropriate volume of assay buffer+0.05% BSA.
Finally, 80 μl of the membrane/bead suspension was added to each well. […] The raw counts were analysed by averaging replicates, subtraction of non-specific binding and the subsequent calculation of % inhibition of binding of the iodinated ligand.

The target in a further assay is T2, MCT1 (Homo sapiens, UniProt P53985, D490E).
T2 sequence (P53985 1-500 D490E): T1 sequence (P53985 1-500 D490E)
Put plainly: Yeast expressed MCT1 filter binding assay (competition with 3H-ligand C). Also on record: The invention is not restricted to the use of full-length native human MCTs; made in house; host or cells: Saccharomyces cerevisiae BY4742 (jen1 deletion), membrane preparation; plasmid pACES14-hMCT1. The settings on record: yeast membrane MCT1 filter binding, 2.5 nM 3H-ligand C. The protocol: Assay to Measure the Potency of Selected Compounds Using a Filter Binding Assay
Competition assays can be used to measure the affinity of unlabelled compound for MCT1. […] 180 μl of yeast membranes expressing MCT1 in assay buffer containing typically 0.5 to 1 μg total protein was added to start the reaction. […] The competition assay was incubated at 2 hours at room temperature with shaking. Experimental data points were usually carried out in triplicate. The membranes were harvested onto GF-B filter plates and washed with assay buffer without BSA, dried, scintillant added and counts detected using a tritium program on a Packard Top Count plate reader. The results were analysed by subtraction of the non-specific binding from each of the experimental points and then fitting a sigmoidal curve through a semi-log plot of the data in Microcal Origin.

The subject of a further assay is IgE production. Put plainly: Inhibition of murine antibody production, IgE (ovalbumin immunised). The settings on record: 10 days following antigenic boost. The class given is in vivo, Balb/c mice. As to the method:
Balb/c mice were immunised with 0.5 mg/kg ovalbumin (OVA) and 200 mg/kg aluminium hydroxide gel in saline intraperitoneally and left for 29 days before being re-challenged intraperotoneally with 0.5 mg/kg ovalbumin in buffered saline vehicle and left for a further 10 days. Compound was dosed daily from re-challenge to termination prior to serum collection. Control groups were dosed with compound vehicle only. On completion of dosing, serum samples were taken from the mice and analysed for total and specific levels of IgE.
For total IgE, microtitre plates were coated with 5 ug/ml monoclonal rat anti-mouse IgE in phosphate buffered saline (PBS) and incubated overnight at 4° C. The plates were then washed four times with PBS containing 0.05% Tween 20 and then blocked with 1% BSA in PBS at room temperature for 2 hours. This was followed by two further plate washings.
The serum samples and IgE standards were added to the wells in duplicate and incubated overnight. The plates were then washed a further four times before adding 50 ul biotinylated monoclonal rat anti-mouse IgE appropriately diluted in 0.1% BSA in PBS for 2 hours. The plate was washed for a further four times before adding 50 ul streptavidin alkaline phosphatase conjugate appropriately diluted in 1% BSA in PBS at room temperature for 50 minutes. The plate was washed a further four times before enzyme substrate (paranitrophenyl phoshate in 1M diethanolamine buffer pH 9.8) at 1 mg/ml was added. Once the colour reaction developed, the plate was read at 405 nm. Levels of total IgE in serum samples were extrapolated from curve obtained with IgE standards.
For specific IgE, the methodology was similar except for the following. The microtitre plates were coated with 50 ug/ml rat anti-mouse IgE. The serum samples or normal control sera were added to the washed plates. Biotinylated OVA diluted in 0.1% BSA in PBS was used as enzyme marker.

A further assay has as its system IgG2a production. Put plainly: Inhibition of murine antibody production, IgG2a (ovalbumin in poly I:C). To be noted: Mus musculus, sc, 168 h, subcutaneous, 7 days following antigenic boost. Type of assay: in vivo, Balb/c mice. As to the method: To measure the effect of the compound on IgG2a production, Balb/c mice were immunised with ovalbumin in poly I:C adjuvant (polyinosinic:polycytidylic acid adjuvant) and left for 14 days before being re-challenged with ovalbumin in buffered saline vehicle and left for a further 7 days. Serum samples were taken from the mice and analysed for total and specific IgG2a. Compound was dosed daily from re-challenge to termination prior to serum collection. For total IgG2A, microtitre plates were coated with 5 ug/ml of goat anti-mouse IgG2a in PBS and incubated overnight at 4° C. The plates were then washed four times with PBS containing 0.05% Tween 20 and then blocked with 1% BSA at room temperature for 2 hours. This was followed by two further plate washings. The serum samples and IgG2a standards were added to the wells in duplicate and incubated at 4° C. overnight. The plates were then washed a further four times before adding 50 ul alkaline phosphatase conjugated goat anti-mouse IgG appropriately diluted in 0.1% BSA in PBS and left at room temperature for an hour. The plate was washed a further four times before enzyme substrate (p-nitrophenyl phosphate in 1M diethanolamine buffer pH 9.8) at 1 mg/ml was added. Once the colour reaction developed, the absorbance of the wells at 405 nm was read in a spectrophotometer. […]

With `CON(C)C(=O)c1c(Cn2c(C)nc(Cl)c2Cl)sc2c1c(=O)n(C)c(=O)n2CC(C)C` [Ligand 5, 6-[(4,5-Dichloro-2-methyl-1H-imidazol-1-yl)methyl]-1,2,3,4-tetrahydro-N-methoxy-N,3-dimethyl-1-(2-methylpropyl)-2,4-dioxo-thieno[2,3-d]pyrimidine-5-carboxamide], the IC50 was 2.69 nM in the assay with activated T-lymphocytes [1]; 3.8 nM in the assay on activated T-lymphocytes [2] (Homo sapiens, T-lymphocyte, Mean±s.e.mean (mean±range for n=2), read-out: pIA50 Extracellular Lactate (converted)); 1.66 nM in assay [4]. In addition, in the assay with activated T-lymphocytes [3], the EC50 was 2.29 nM.
With `CC(C)Cn1c(=O)n(C)c(=O)c2cc(Cc3nc4ccccc4s3)sc21` [Ligand 4, 6-([benzothiazol-2-yl]methyl)-3-methyl-1-(2-methylpropyl)thieno[2,3-d]pyrimidine-2,4(1H,3H)-dione], the IC50 in assay [5] worked out at 32.2 nM; on MCT1 it was 787 nM.
On to `CC(C)Cn1c(=O)n(C)c(=O)c2c(SCCCO)c(Cc3cccc4ccccc34)sc21` [Ligand 1, 5-[(3-hydroxypropyl)thio]-3-methyl-1-(2-methylpropyl)-6-(1-napthalenylmethyl)thieno[2,3-d]pyrimidine-2,4(1H,3H)-dione], for which the “maximum level of inhibition, extracellular lactate” value with activated T-lymphocytes [2] is recorded as 30±1.9%. For the same compound, the EC50 in the assay with activated T-lymphocytes [3] is 0.407 nM. Besides, the “inhibition of OVA specific IgE” value with IgE production (3 mg/kg subcutaneous) turned out to be 64%; in the assay on IgE production (30 mg/kg subcutaneous), 53%. Moreover, the entries for the “inhibition of total IgE” value with IgE production (3 mg/kg subcutaneous) and with IgE production (30 mg/kg subcutaneous) were 67% and 84%, respectively. The ED50 in the assay on IgG2a production (read-out: ED50, specific IgG2a production) amounted to 10 mg/kg; in the assay on IgG2a production (read-out: ED50, total IgG2a production), 30 mg/kg.
`CC(C)Cn1c(=O)n(C)c(=O)c2cc(Cc3ccnc4ccccc34)sc21` [Ligand 3, 6-(4-quinolinylmethyl)--3-methyl-1-(2-methylpropyl)-thieno[2,3-d]pyrimidin-2,4(1H,3H)-dione]: the IC50 in assay [5] turned out to be 15.4 nM; on MCT1, 105 nM.

As usually defined, the ED50 is the dose at which the effect has come halfway, by size or by number of responders.

The record behind these values is patent publication US20040072746A1, “Inhibitors of monocarboxylate transport” (priority 2001, published 2004).
